Reference: patent publication US10385024B2, “Compounds and methods for inhibiting NHE-mediated antiport in the treatment of disorders associated with fluid retention or salt overload and gastrointestinal tract disorders” (Ardelyx, Inc., priority 2012, dated 2019)

Columns and labels:
[1] = target: T1, Rat NHE-3 (Rattus norvegicus, UniProt P26433); assay: Cell-based assay of NHE-3 activity (rat NHE-3 prompt inhibition); conditions: OK cells with rat NHE-3 gene, compound present during pH recovery; for IC50: read-out: Rat NHE3 pIC50 (prompt) (converted)
T1 construct: expressed in transfected cells; host or cells: Opossum kidney (OK) cells (ATCC), transfected by electroporation
Experimental: (§1) Rat or human NHE-3-mediated Na^+-dependent H^+ antiport was measured using a modification of the pH sensitive dye method originally reported by Paradiso (Proc. Natl. Acad. Sci. USA. (1984) 81(23): 7436-7440). Opossum kidney (OK) cells were obtained from the ATCC and propagated per their instructions. The rat NHE-3 gene (GenBank M85300) or the human NHE-3 gene (GenBank NM_004174.1) was introduced into OK cells via electroporation, and cells were seeded into 96 well plates and grown overnight. Medium was aspirated from the wells, cells were washed twice with NaCl-HEPES buffer (100 mM NaCl, 50 mM HEPES, 10 mM glucose, 5 mM KCl, 2 mM CaCl2, 1 mM MgCl2, pH 7.4), then incubated for 30 min at room temperature with NH4Cl-HEPES buffer (20 mM NH4Cl, 80 mM NaCl, 50 mM HEPES, 5 mM KCl, 2 mM CaCl2, 1 mM MgCl2, pH 7.4) containing 5 μM bis(acetoxymethyl) 3,3′-(3′,6′-bis(acetoxymethoxy)-5-((acetoxymethoxy)carbonyl)-3-oxo-3H-spiro[isobenzofuran-1,9′-xanthene]-2′,7′-diyl)dipropanoate (BCECF-AM). Cells were washed twice with Ammonium free, Na^+-free HEPES (100 mM choline, 50 mM HEPES, 10 mM glucose, 5 mM KCl, 2 mM CaCl2, 1 mM MgCl2, pH 7.4) and incubated in the same buffer for 10 minutes at room temperature to lower intracellular pH. […] Initial rates were plotted as the average 2 or more replicates, and pIC50 values were estimated using GraphPad Prism.

[2] = target: T2, human NHE-3 (Homo sapiens, UniProt P48764); assay: Cell-based assay of NHE-3 activity (human NHE3 inhibition assay); conditions: OK cells with human NHE-3 gene, BCECF pH dye, 0-30 μM test compound; for IC50: read-out: Human NHE3 pIC50 (converted)
T2 construct: expressed in transfected cells; host or cells: Opossum kidney (OK) cells (ATCC), transfected by electroporation
T2 sequence (P48764 26-834): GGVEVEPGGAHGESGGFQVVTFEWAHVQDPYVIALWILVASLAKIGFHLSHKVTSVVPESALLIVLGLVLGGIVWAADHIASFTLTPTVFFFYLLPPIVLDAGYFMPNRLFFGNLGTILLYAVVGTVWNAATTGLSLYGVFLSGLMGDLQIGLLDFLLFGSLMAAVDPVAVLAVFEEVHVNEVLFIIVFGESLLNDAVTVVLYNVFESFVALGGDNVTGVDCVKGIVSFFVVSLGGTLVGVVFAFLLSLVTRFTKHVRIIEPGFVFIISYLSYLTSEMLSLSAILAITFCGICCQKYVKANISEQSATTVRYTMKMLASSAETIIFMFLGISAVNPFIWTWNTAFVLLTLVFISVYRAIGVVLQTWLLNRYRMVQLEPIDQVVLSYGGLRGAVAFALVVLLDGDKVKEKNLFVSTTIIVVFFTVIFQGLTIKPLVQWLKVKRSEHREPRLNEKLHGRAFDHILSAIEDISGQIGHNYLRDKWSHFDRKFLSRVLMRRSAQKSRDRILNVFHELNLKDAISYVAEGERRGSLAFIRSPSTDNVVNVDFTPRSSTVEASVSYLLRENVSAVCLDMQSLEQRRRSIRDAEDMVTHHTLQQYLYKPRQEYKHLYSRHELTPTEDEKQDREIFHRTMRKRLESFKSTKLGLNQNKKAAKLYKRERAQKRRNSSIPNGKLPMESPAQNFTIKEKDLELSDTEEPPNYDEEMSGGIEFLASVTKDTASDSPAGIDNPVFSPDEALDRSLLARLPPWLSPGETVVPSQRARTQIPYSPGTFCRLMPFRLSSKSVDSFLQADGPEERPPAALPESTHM
Experimental: as §1

[3] = target: T1, Rat NHE-3; assay: Cell-based assay of NHE-3 activity (persistent inhibition, after washout); conditions: OK cells with rat NHE-3 gene, 60 min incubation, recovery initiated 40 min after compound washout; for IC50: read-out: Rat NHE3 pIC50 (persistent) (converted)
Experimental: The ability of compounds to inhibit Rat NHE-3-mediated Na^+-dependent H^+ antiport after application and washout was measured using a modification of the pH sensitive dye method described above in Example 74. Opossum kidney (OK) cells were obtained from the ATCC and propagated per their instructions. The rat NHE-3 gene was introduced into OK cells via electroporation, and cells were seeded into 96 well plates and grown overnight. Medium was aspirated from the wells, cells were washed twice with NaCl-HEPES buffer (100 mM NaCl, 50 mM HEPES, 10 mM glucose, 5 mM KCl, 2 mM CaCl2, 1 mM MgCl2, pH 7.4), then overlayed with NaCl-HEPES buffer containing 0-30 μM test compound. After a 60 min incubation, the test drug containing buffer was aspirated from the cells, cells were washed twice with NaCl-HEPES buffer without drug, then incubated for 30 min at room temperature with NH4Cl-HEPES buffer (20 mM NH4Cl, 80 mM NaCl, 50 mM HEPES, 5 mM KCl, 2 mM CaCl2, 1 mM MgCl2, pH 7.4) containing 5 μM BCECF-AM. Cells were washed twice with ammonium free, Na^+-free HEPES (100 mM choline, 50 mM HEPES, 10 mM glucose, 5 mM KCl, 2 mM CaCl2, 1 mM MgCl2, pH 7.4) and incubated in the same buffer for 10 minutes at room temperature to lower intracellular pH. […] Initial rates were plotted as the average 2 or more replicates, and pIC50 values were estimated using GraphPad Prism.

T1 sequence (P26433 29-831): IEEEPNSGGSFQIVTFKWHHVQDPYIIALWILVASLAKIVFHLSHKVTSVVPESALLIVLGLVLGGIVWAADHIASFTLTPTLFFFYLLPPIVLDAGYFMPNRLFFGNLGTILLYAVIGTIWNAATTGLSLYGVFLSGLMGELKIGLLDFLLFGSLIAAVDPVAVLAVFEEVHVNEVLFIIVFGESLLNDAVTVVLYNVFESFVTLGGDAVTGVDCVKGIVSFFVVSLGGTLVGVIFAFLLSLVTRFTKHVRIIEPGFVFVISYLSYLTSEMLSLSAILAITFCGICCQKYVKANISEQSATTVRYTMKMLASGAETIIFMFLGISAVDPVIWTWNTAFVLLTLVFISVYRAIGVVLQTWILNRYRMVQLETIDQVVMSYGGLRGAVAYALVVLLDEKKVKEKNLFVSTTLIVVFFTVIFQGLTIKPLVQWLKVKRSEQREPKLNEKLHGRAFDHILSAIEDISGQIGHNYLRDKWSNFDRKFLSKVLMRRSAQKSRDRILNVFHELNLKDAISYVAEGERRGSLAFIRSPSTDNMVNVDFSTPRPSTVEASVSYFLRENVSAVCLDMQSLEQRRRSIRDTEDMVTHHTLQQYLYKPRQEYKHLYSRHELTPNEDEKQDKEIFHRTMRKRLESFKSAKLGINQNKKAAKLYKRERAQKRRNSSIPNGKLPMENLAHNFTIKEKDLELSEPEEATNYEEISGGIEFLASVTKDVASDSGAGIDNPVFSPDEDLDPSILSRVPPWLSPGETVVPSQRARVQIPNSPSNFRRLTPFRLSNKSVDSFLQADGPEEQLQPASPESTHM

| Compound | IC50 [1] | IC50 [2] | IC50 [3] | Rat NHE3 pIC50 (prompt) [1] | Human NHE3 pIC50 [2] | Rat NHE3 pIC50 (persistent) [3] |
| --- | --- | --- | --- | --- | --- | --- |
| CN1Cc2c(Cl)cc(Cl)cc2[C@H](c2cccc(S(=O)(=O)NCCOCCOCCNC(=O)NCCN(CCNC(=O)NCCOCCOCCNS(=O)(=O)c3cccc([C@@H]4CN(C)Cc5c(Cl)cc(Cl)cc54)c3)C(=O)CCCCCCCCCCC(=O)N(CCNC(=O)NCCOCCOCCNS(=O)(=O)c3cccc([C@@H]4CN(C)Cc5c(Cl)cc(Cl)cc54)c3)CCNC(=O)NCCOCCOCCNS(=O)(=O)c3cccc([C@@H]4CN(C)Cc5c(Cl)cc(Cl)cc54)c3)c2)C1 [Example 44, N^1,N^1,N^12,N^12-tetrakis(13-(3-((S)-6,8-dichloro-2-methyl-1,2,3,4-tetrahydroisoquinolin-4-yl)phenylsulfonamido)-4-oxo-8,11-dioxa-3,5-diazatridecyl)dodecanediamide] | > 10 µM | > 10 µM | 0.1 to 10 µM | – | – | – |
| CN1Cc2c(Cl)cc(Cl)cc2[C@H](c2cccc(S(=O)(=O)NCCOCCOCCNC(=O)NCCN(CCNC(=O)NCCOCCOCCNS(=O)(=O)c3cccc([C@@H]4CN(C)Cc5c(Cl)cc(Cl)cc54)c3)C(=O)NCCCCCCCCCCCCNC(=O)N(CCNC(=O)NCCOCCOCCNS(=O)(=O)c3cccc([C@@H]4CN(C)Cc5c(Cl)cc(Cl)cc54)c3)CCNC(=O)NCCOCCOCCNS(=O)(=O)c3cccc([C@@H]4CN(C)Cc5c(Cl)cc(Cl)cc54)c3)c2)C1 [Example 45] | 0.1 to 10 µM | 0.1 to 10 µM | > 10 µM | – | – | – |
| CN1Cc2c(Cl)cc(Cl)cc2[C@H](c2cccc(S(=O)(=O)NCCOCCOCCOCCNC(=O)CN(CC(=O)NCCOCCOCCOCCNS(=O)(=O)c3cccc([C@@H]4CN(C)Cc5c(Cl)cc(Cl)cc54)c3)[C@@H]3CCCC[C@H]3N(CC(=O)NCCOCCOCCOCCNS(=O)(=O)c3cccc([C@@H]4CN(C)Cc5c(Cl)cc(Cl)cc54)c3)CC(=O)NCCOCCOCCOCCNS(=O)(=O)c3cccc([C@@H]4CN(C)Cc5c(Cl)cc(Cl)cc54)c3)c2)C1 [Example 48] | – | – | – | B (B NHE3 pIC50 5-7) | C (C NHE3 pIC50 > 7) | C (C NHE3 pIC50 > 7) |
| CN1Cc2c(Cl)cc(Cl)cc2[C@H](c2cccc(S(=O)(=O)NCCOCCOCCOCCNC(=O)CN(CCN(CC(=O)NCCOCCOCCOCCNS(=O)(=O)c3cccc([C@@H]4CN(C)Cc5c(Cl)cc(Cl)cc54)c3)CC(=O)NCCOCCOCCOCCNS(=O)(=O)c3cccc([C@@H]4CN(C)Cc5c(Cl)cc(Cl)cc54)c3)CCN(CC(=O)NCCOCCOCCOCCNS(=O)(=O)c3cccc([C@@H]4CN(C)Cc5c(Cl)cc(Cl)cc54)c3)CC(=O)NCCOCCOCCOCCNS(=O)(=O)c3cccc([C@@H]4CN(C)Cc5c(Cl)cc(Cl)cc54)c3)c2)C1 [Example 49] | – | – | – | B (B NHE3 pIC50 5-7) | B (B NHE3 pIC50 5-7) | B (B NHE3 pIC50 5-7) |
| CN1Cc2c(Cl)cc(Cl)cc2[C@H](c2cccc(S(=O)(=O)NCCOCCOCCOCCNC(=O)NCCCN(CCCNC(=O)NCCOCCOCCOCCNS(=O)(=O)c3cccc([C@@H]4CN(C)Cc5c(Cl)cc(Cl)cc54)c3)CCCNC(=O)NCCOCCOCCOCCNS(=O)(=O)c3cccc([C@@H]4CN(C)Cc5c(Cl)cc(Cl)cc54)c3)c2)C1 [Example 51] | – | – | – | C (C NHE3 pIC50 > 7) | C (C NHE3 pIC50 > 7) | C (C NHE3 pIC50 > 7) |
| CN1Cc2c(Cl)cc(Cl)cc2[C@H](c2cccc(S(=O)(=O)NCCOCCOCCNC(=O)NCCN(CCNC(=O)NCCOCCOCCNS(=O)(=O)c3cccc([C@@H]4CN(C)Cc5c(Cl)cc(Cl)cc54)c3)C(=O)CCOCCOCCOCCOCCOCCC(=O)N(CCNC(=O)NCCOCCOCCNS(=O)(=O)c3cccc([C@@H]4CN(C)Cc5c(Cl)cc(Cl)cc54)c3)CCNC(=O)NCCOCCOCCNS(=O)(=O)c3cccc([C@@H]4CN(C)Cc5c(Cl)cc(Cl)cc54)c3)c2)C1 [Example 59] | – | – | – | B (B NHE3 pIC50 5-7) | C (C NHE3 pIC50 > 7) | C (C NHE3 pIC50 > 7) |
| CN1Cc2c(Cl)cc(Cl)cc2[C@H](c2cccc(S(=O)(=O)NCCOCCOCCNC(=O)NCCN(CCNC(=O)NCCOCCOCCNS(=O)(=O)c3cccc([C@@H]4CN(C)Cc5c(Cl)cc(Cl)cc54)c3)C(=O)CCOCCOCCOCCOCCOCCOCCOCCOCCOCCC(=O)N(CCNC(=O)NCCOCCOCCNS(=O)(=O)c3cccc([C@@H]4CN(C)Cc5c(Cl)cc(Cl)cc54)c3)CCNC(=O)NCCOCCOCCNS(=O)(=O)c3cccc([C@@H]4CN(C)Cc5c(Cl)cc(Cl)cc54)c3)c2)C1 [Example 61] | – | – | – | B (B NHE3 pIC50 5-7) | C (C NHE3 pIC50 > 7) | B (B NHE3 pIC50 5-7) |
| CN1Cc2c(Cl)cc(Cl)cc2[C@H](c2cccc(S(=O)(=O)NCCOCCOCCN(C)C(=O)CCC(CCC(=O)N(C)CCOCCOCCNS(=O)(=O)c3cccc([C@@H]4CN(C)Cc5c(Cl)cc(Cl)cc54)c3)(CCC(=O)N(C)CCOCCOCCNS(=O)(=O)c3cccc([C@@H]4CN(C)Cc5c(Cl)cc(Cl)cc54)c3)NC(=O)NCC(=O)O)c2)C1 [Example 69] | – | – | – | C (C NHE3 pIC50 > 7) | C (C NHE3 pIC50 > 7) | C (C NHE3 pIC50 > 7) |
